Test results published in ChEMBL document CHEMBL1129521, “Molecular modeling of azole antifungal agents active against Candida albicans. 1. A comparative molecular field analysis study” (1996).

These molecules were tested on Candida albicans (assay: In vitro antimycotic activity of compound against Candida albicans was determined as -log MIC90 compound to that of -log MIC90 bifonazole).
Format: functional

In order of rising Ratio:
1. Cc1ccc(C(c2ccc(NC(=O)c3ccc(Cl)cc3Cl)cc2)n2ccnc2)cc1 (stereo unspecified)  0
2. Fc1ccc(-c2c[nH]cc2C(c2ccccc2)n2ccnc2)cc1 (stereo unspecified)  0
3. O=[N+]([O-])c1ccc(C(c2ccc(Cl)cc2)n2ccnc2)cc1 (stereo unspecified)  0
4. Fc1ccc(C(c2ccn(-c3ccc(F)cc3)c2)n2ccnc2)cc1 (stereo unspecified)  0
5. Cn1cc(-c2ccc(Cl)cc2)c(C(c2ccccc2)n2ccnc2)c1 (stereo unspecified)  0
6. Cc1ccc(C(c2ccn(-c3ccccc3)c2)n2ccnc2)cc1 (stereo unspecified)  0
7. c1ccc(-c2ccc(C(c3ccccc3)n3ccnc3)cc2)cc1 (stereo unspecified) [BIFONAZOLE]  0
8. Cc1ccc(C(c2ccn(-c3ccc(Cl)cc3)c2)n2ccnc2)cc1 (stereo unspecified)  0
9. Cc1ccc(C(c2ccc([N+](=O)[O-])cc2)n2ccnc2)cc1 (stereo unspecified)  0.3
10. COc1ccc(C(Cc2ccc(N)cc2)n2ccnc2)cc1 (stereo unspecified)  0.3
11. Clc1ccc(C(c2ccc(-n3cccc3)cc2)n2ccnc2)cc1 (stereo unspecified)  0.3
12. Clc1ccc(-n2ccc(C(c3ccccc3)n3ccnc3)c2)cc1 (stereo unspecified)  0.3
13. O=[N+]([O-])c1ccc(C(c2ccccc2)n2ccnc2)cc1 (stereo unspecified)  0.3
14. Fc1ccc(C(c2ccn(-c3ccccc3)c2)n2ccnc2)cc1 (stereo unspecified)  0.3
15. Fc1ccc(-n2ccc(C(c3ccc(Cl)cc3)n3ccnc3)c2)cc1 (stereo unspecified)  0.3
16. Cc1ccc(C(c2ccn(-c3ccc(F)cc3)c2)n2ccnc2)cc1 (stereo unspecified)  0.3
17. Fc1ccc(C(c2ccn(-c3ccc(Cl)cc3)c2)n2ccnc2)cc1 (stereo unspecified)  0.3
18. Nc1ccc(C(c2ccccc2)n2ccnc2)cc1 (stereo unspecified)  0.3
19. Clc1ccc(-c2c[nH]cc2C(c2ccccc2)n2ccnc2)cc1 (stereo unspecified)  0.3
20. COc1ccc(C(Cc2ccc(Cl)cc2)n2ccnc2)cc1 (stereo unspecified)  0.6
21. Fc1ccc(-n2ccc(C(c3ccccc3)n3ccnc3)c2)cc1 (stereo unspecified)  0.6
22. c1ccc(C(c2ccn(-c3ccccc3)c2)n2ccnc2)cc1 (stereo unspecified)  0.6
23. Clc1ccc(C(c2ccn(-c3ccc(Cl)cc3)c2)n2ccnc2)cc1 (stereo unspecified)  0.6
24. Cn1cc(-c2ccccc2)c(C(c2ccccc2)n2ccnc2)c1 (stereo unspecified)  0.6
25. COc1ccc(C(Cc2ccc(Cl)cc2Cl)n2ccnc2)cc1 (stereo unspecified)  0.6
26. Cn1cc(-c2ccc(F)cc2)c(C(c2ccccc2)n2ccnc2)c1 (stereo unspecified)  0.6
27. c1ccc(C(c2ccc(-n3cccc3)cc2)n2ccnc2)cc1 (stereo unspecified)  0.6
28. Cc1ccc(-c2cn(C)cc2C(c2ccccc2)n2ccnc2)cc1 (stereo unspecified)  0.6
29. Cc1ccc(C(c2ccc(-n3cccc3)cc2)n2ccnc2)cc1 (stereo unspecified)  0.9
30. c1ccc(-c2c[nH]cc2C(c2ccc3ccccc3c2)n2ccnc2)cc1 (stereo unspecified)  0.9
31. COc1ccc(CC(c2ccc(OC)cc2)n2ccnc2)cc1 (stereo unspecified)  0.9
32. CCC(c1ccc([N+](=O)[O-])cc1)C(c1ccc(OC)cc1)n1ccnc1 (stereo unspecified)  0.9
33. c1ccc(-c2c[nH]cc2C(c2cccc3ccccc23)n2ccnc2)cc1 (stereo unspecified)  0.9
34. COc1ccc(C(Cc2ccccc2-n2cccc2)n2ccnc2)cc1 (stereo unspecified)  0.9
35. COc1ccc(C(Cc2ccc(F)cc2)n2ccnc2)cc1 (stereo unspecified)  1.2
36. COc1ccc(C(C(Cc2ccc(Cl)cc2Cl)c2ccc(Cl)cc2)n2ccnc2)cc1 (stereo unspecified)  1.2
37. CCC(c1ccc(Cl)cc1)C(c1ccc(OC)cc1)n1cncn1 (stereo unspecified)  1.5
38. Clc1ccc(Cn2cc(-c3ccccc3)c(C(c3ccccc3)n3ccnc3)c2)c(Cl)c1 (stereo unspecified)  1.5
39. COc1ccc(C(Cc2ccc(Cl)cc2)n2cncn2)cc1 (stereo unspecified)  1.5
40. COc1ccc(C(Cc2cccc(Cl)c2)n2ccnc2)cc1 (stereo unspecified)  1.5
41. COc1ccc(C(Cc2ccc(Cl)cc2Cl)C(c2ccc(OC)cc2)n2ccnc2)cc1 (stereo unspecified)  1.5
42. COc1ccc(C(Cc2ccc([N+](=O)[O-])cc2)n2ccnc2)cc1 (stereo unspecified)  1.5
43. Cn1cc(-c2ccccc2)c(C(c2cccc3ccccc23)n2ccnc2)c1 (stereo unspecified)  1.5
44. COc1ccc(C(Cc2cccc(-n3cccc3)c2)n2ccnc2)cc1 (stereo unspecified)  1.8
45. COc1ccc(C(Cc2ccc(Cl)cc2)n2cnnc2)cc1 (stereo unspecified)  1.8
46. COc1ccc(C(Cc2cccc(F)c2)n2ccnc2)cc1 (stereo unspecified)  1.8
47. Cc1ccc(-c2cn(Cc3ccc(Cl)cc3Cl)cc2C(c2ccccc2)n2ccnc2)cc1 (stereo unspecified)  1.8
48. Clc1ccc(-c2cn(Cc3ccc(Cl)cc3Cl)cc2C(c2ccccc2)n2ccnc2)cc1 (stereo unspecified)  1.8
49. COc1ccc(C(Cc2ccccc2Cl)n2ccnc2)cc1 (stereo unspecified)  1.8
50. COc1ccc(-c2cn(Cc3ccc(Cl)cc3Cl)cc2C(c2ccccc2)n2ccnc2)cc1 (stereo unspecified)  1.8
51. COc1ccc(C(Cc2ccccc2F)n2ccnc2)cc1 (stereo unspecified)  1.8
52. CCC(c1ccc(Cl)cc1)C(c1ccc(OC)cc1)n1cnnc1 (stereo unspecified)  1.8
53. COc1ccc(C(C(Cc2ccc(Cl)cc2Cl)c2ccc(Cl)cc2)n2cncn2)cc1 (stereo unspecified)  1.8
54. COc1ccc(CC(c2ccc(OC)cc2)n2cnnc2)cc1 (stereo unspecified)  1.8
55. COc1ccc(C(Cc2ccccc2[N+](=O)[O-])n2ccnc2)cc1 (stereo unspecified)  2.1
56. Cn1cc(-c2ccccc2)c(C(c2ccc3ccccc3c2)n2ccnc2)c1 (stereo unspecified)  2.4
